What was measured:
[1] = test system: Mycobacterium tuberculosis; assay: Antimycobacterial activity against Mycobacterium tuberculosis H37Rv ATCC 27294 measured after 28 days by MABA method; format: functional; details: H37Rv ATCC 27294, 672 h
[2] = Cytotoxicity against HEK293T cells assessed as inhibition of cell viability at 50 ug/ml after 72 hrs by MTT assay relative to control; format: toxicity, cell-based, HEK-293T; details: human, read-out: INH
[3] = Therapeutic index, ratio of compound cytotoxic activity for HEK293T cells to MIC99 for Mycobacterium tuberculosis H37Rv ATCC 27294; format: cell-based, HEK-293T; details: human, read-out: TI

Compound	MIC99 [1]	cytotoxicity at 72 h, 50 ug/ml [2]	selectivity ratio [3]
Cc1nc2ccccc2c(-c2ccccc2)c1C(=O)Nc1ccccc1Cl	33.5 µM		
Cc1nc2ccccc2c(-c2ccccc2)c1C(=O)Nc1ccc(F)cc1	16.8 µM	12.5%	
c1ccc(-c2cc(-c3ccccc3)c3ccccc3n2)cc1	11.1 µM	18.1%	
CC[C@@H](CO)NCCN[C@@H](CC)CO [ETHAMBUTOL]	1.56 µg/mL		
Cc1nc2ccccc2c(-c2ccccc2)c1C(=O)OC(C)(C)C	1.22 µM	13.6%	
Cc1nc2ccc(Cl)cc2c(-c2ccccc2)c1C(=O)c1ccccc1	8.73 µM	26.1%	
Cc1nc2ccccc2c(-c2ccccc2)c1C(=O)Nc1ccccc1	9.23 µM	25.6%	
COc1ccccc1CNC(=O)c1c(C)nc2ccccc2c1-c1ccccc1	> 65.4 µM		
c1ccc(-c2c3c(nc4ccccc24)CCCC3)cc1	48.2 µM		
CCOC(=O)c1c(C)nc2ccc(Cl)cc2c1-c1ccccc1	76.7 µM		
NC(=O)c1cnccn1 [PYRAZINAMIDE]	6.25 µg/mL		
COc1ccccc1NC(=O)c1c(C)nc2ccccc2c1-c1ccccc1	67.9 µM		
NNC(=O)c1ccncc1 [ISONIAZID]	0.098 µg/mL		
O=C1CCCc2nc3ccccc3c(-c3ccccc3)c21	45.7 µM		
c1ccc(-c2c3c(nc4ccccc24)CCC3)cc1	25.5 µM	30%	
Cc1nc2ccccc2c(-c2ccccc2)c1C(=O)c1ccccc1	19.3 µM	22.1%	
O=C1CC(c2ccccc2)Cc2nc3ccccc3c(-c3ccccc3)c21 (stereo unspecified)	35.8 µM		
CCOC(=O)c1c(C)nc2ccccc2c1C	109 µM		
Cc1nc2ccccc2c(-c2ccccc2)c1C(=O)Nc1ccc(Cl)cc1	17.5 µM	16.3%	
CC(=O)c1c(C)nc2ccc(Cl)cc2c1-c1ccccc1	10.6 µM	19.9%	
CC(=O)c1c(C)nc2ccccc2c1-c1ccccc1	47.8 µM		
Cc1nc2ccccc2c(-c2ccccc2)c1C(=O)Nc1cccnc1Cl	16.7 µM	11.3%	
Cc1nc2ccccc2c(-c2ccccc2)c1C(=O)Nc1ccccc1Br	15 µM	15.6%	

Compound	MIC99 [1]	cytotoxicity at 72 h, 50 ug/ml [2]	selectivity ratio [3]
Cc1nc2ccccc2c(-c2ccccc2)c1C(=O)Nc1ccccc1I	3.36 µM	17.9%	
CC1CC(=O)c2c(nc3ccccc3c2-c2ccccc2)C1 (stereo unspecified)	21.8 µM	28%	
c1ccc(-c2cc(-c3ccco3)nc3ccccc23)cc1	5.75 µM	34%	
Cc1nc2ccccc2c(-c2ccccc2)c1C(=O)NCc1cccc(F)c1	33.8 µM		
Cc1nc2ccccc2c(-c2ccccc2)c1C(=O)NCc1ccccc1Cl	4.03 µM	13.6%	
c1ccc(-c2c3c(nc4ccccc24)CCCCC3)cc1	45.7 µM		
Cc1ccccc1CNC(=O)c1c(C)nc2ccccc2c1-c1ccccc1	8.53 µM	20.6%	
CC1(C)CC(=O)c2c(nc3ccccc3c2-c2ccccc2)C1	20.7 µM	22%	
CCOC(=O)c1c(C)nc2ccccc2c1-c1ccccc1	0.69 µM	25.6%	> 250
Cc1nc2ccccc2c(-c2ccccc2)c1C(=O)Nc1ccccc1F	35.1 µM		
COC(=O)c1c(C)nc2ccccc2c1-c1ccccc1	45.1 µM	25.6%	
Cc1nc2ccccc2c(-c2ccccc2)c1C(=O)NCc1ccccc1	70.9 µM		
Cc1nc2ccccc2c(-c2ccccc2)c1C(=O)Nc1ccc(Br)cc1	30.9 µM		
c1ccc(-c2cc(-c3cccs3)nc3ccccc23)cc1	21.8 µM	25.5%	
Cc1nc2ccccc2c(-c2ccccc2)c1C(=O)Nc1ccccc1OC(F)(F)F	29.6 µM		
c1ccc(-c2c3c(nc4ccccc24)CCCCCC3)cc1	10.9 µM	31.1%	
Cc1nc2ccccc2c(-c2ccccc2)c1C(=O)Nc1ccccn1	73.7 µM		
Cc1nc2ccccc2c(-c2ccccc2)c1C(=O)NCc1cccc(Cl)c1	64.6 µM		
COC(=O)c1c(C)nc2ccc(Cl)cc2c1-c1ccccc1	80.2 µM		
COc1ccc(NC(=O)c2c(C)nc3ccccc3c2-c2ccccc2)cc1	8.48 µM	35.2%	
CO[C@H]1/C=C/O[C@@]2(C)Oc3c(C)c(O)c4c(O)c(c(/C=N/N5CCN(C)CC5)c(O)c4c3C2=O)NC(=O)/C(C)=C\C=C\[C@H](C)[C@H](O)[C@@H](C)[C@@H](O)[C@@H](C)[C@H](OC(C)=O)[C@@H]1C [RIFAMPIN]	0.197 µg/mL		
Cc1nc2ccccc2c(-c2ccccc2)c1C(=O)NCc1ccc(C(C)(C)C)cc1	3.82 µM	35.6%	
Cc1nc2ccccc2c(-c2ccccc2)c1C(=O)Nc1ccncc1	18.4 µM	12.6%	

Source: ChEMBL document CHEMBL3870331, “Design, development of new synthetic methodology, and biological evaluation of substituted quinolines as new anti-tubercular leads” (Bioorg Med Chem Lett, 2016)
